For this series, the target named is T1, FAAH (Mus musculus, UniProt O08914).
T1 construct: from tissue; host or cells: live wild type male C57Bl/6 mice (in vivo; brain and serum analysed)
T1 sequence (O08914 1-579): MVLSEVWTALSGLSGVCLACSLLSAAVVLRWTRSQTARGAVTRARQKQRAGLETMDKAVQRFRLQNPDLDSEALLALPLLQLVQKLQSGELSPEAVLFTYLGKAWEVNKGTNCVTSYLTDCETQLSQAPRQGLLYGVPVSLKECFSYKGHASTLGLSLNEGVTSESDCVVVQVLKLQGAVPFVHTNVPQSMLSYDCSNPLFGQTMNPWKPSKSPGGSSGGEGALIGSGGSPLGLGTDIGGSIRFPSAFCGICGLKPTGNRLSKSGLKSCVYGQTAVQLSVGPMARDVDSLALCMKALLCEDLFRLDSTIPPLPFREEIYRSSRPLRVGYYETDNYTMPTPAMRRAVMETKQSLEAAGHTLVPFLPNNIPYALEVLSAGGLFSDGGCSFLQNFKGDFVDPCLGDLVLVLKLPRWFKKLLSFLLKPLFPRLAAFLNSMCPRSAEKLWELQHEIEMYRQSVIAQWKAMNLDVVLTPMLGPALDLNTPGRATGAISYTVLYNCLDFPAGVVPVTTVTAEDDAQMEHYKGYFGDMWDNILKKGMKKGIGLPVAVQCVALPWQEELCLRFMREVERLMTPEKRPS
The series can be described thus: FAAH Inhibition Study: prodrug alone or after FAAH inhibitor PF-3845 in mice. Particulars: FIG. 12, in vivo. How it is done:
Two cohorts of three mice were injected once intraperitoneally (i.p.) with prodrug at 9.14 μmol/kg. One cohort was injected 1 h prior to prodrug administration with a 1 mg/kg dose of FAAH inhibitor PF-3845. Euthanasia was performed on each cohort 1 h after injection with the prodrug and the tissues and blood were harvested. Tissues were immediately frozen and blood was kept on ice for a minimum of 30 min and then spun down at 7500×g for 15 min. Serum ([…]) was collected and was stored with tissues at −80° C. until samples were processed. Samples were processed as described above.
All parent drugs and d6-sobetirome internal standard were analyzed using a QTRAP 4000 hybrid/triple quadrupole linear ion trap mass spectrometer (Applied biosystems) with electrospray ionization (ESI) in negative mode. The mass spectrometer was interfaced to a Shimadzu (Columbia, Md.) SIL-20AC XR auto-sampler followed by 2 LC-20AD XR LC pumps and analysis on an Applied Biosystems/SCIEX QTRAP 4000 instrument (Foster City, Calif.). […] Data were acquired using SCIEX Analyst 1.6.2 software (Framingham, Mass., USA) and analyzed using Multiquant 3.0.2
Statistical analyses were performed using the two-tailed Student t test comparing individual groups with the appropriate vehicle group or as noted. […] AUC values were calculated and data was plotted and analyzed using GraphPad Prism 7. […]

Take `CNC(=O)COc1cc(C)c(Cc2cc(C#Cc3ccc([N+](=O)[O-])cc3)c(O)c(C(C)C)c2)c(C)c1` [NRMA-2, 2-(4-(4-hydroxy-3-isopropyl-5-((4-nitrophenyl)ethynyl)benzyl)-3,5-dimethylphenoxy)-N-methylacetamide]: the “In vivo validation as substrate for the FAAH enzyme” value was “substrate for the FAAH enzyme”.

Values taken from patent US11613517B2, “Amide prodrugs of small molecule nuclear receptor modulators” (OREGON HEALTH & SCIENCE UNIVERSITY, priority 2018, dated 2023).
